Experimental data taken from ChEMBL document CHEMBL1671692, “Intravenous voriconazole after toxic oral administration” (Antimicrob Agents Chemother, 2010).

Experiments:
Type in all cases: organism-based
Homo sapiens [1] = assay: Toxicity in sphenoid sinus human patient assessed as occurrence of epidermolysis bullosa acquisita treatment increased upto 300 mg, po QID by biopsy hostopathological analysis; settings: in vivo
Homo sapiens [2] = assay: Toxicity in sphenoid sinus human patient assessed as occurrence of pseudoporphyria treatment increased upto 300 mg, po QID by biopsy hostopathological analysis; settings: in vivo
Homo sapiens [3] = assay: Toxicity in sphenoid sinus human patient assessed as occurrence of superficial edema treatment increased upto 300 mg, po QID by biopsy hostopathological analysis; settings: in vivo
Homo sapiens [4] = assay: Toxicity in sphenoid sinus human patient assessed as inflammatory infiltration treatment increased upto 300 mg, po QID by biopsy hostopathological analysis; settings: in vivo
Homo sapiens [5] = assay: Toxicity in sphenoid sinus human patient assessed as apoptotic or necrotizing keratinocytes treatment increased upto 300 mg, po QID; settings: in vivo
Homo sapiens [6] = assay: Toxicity in sphenoid sinus human patient assessed as recurrence of the cutaneous reaction treatment increased upto 500 mg, iv BID for 8 weeks; settings: in vivo, 1344 h
Homo sapiens [7] = assay: Toxicity in sphenoid sinus human patient assessed as mild elevations in liver enzyme level treatment increased upto 500 mg, iv BID for 8 weeks; settings: in vivo, 1344 h
Homo sapiens [8] = assay: Toxicity in sphenoid sinus human patient assessed as occurrence of erythema multiforme treatment increased upto 300 mg, po QID by biopsy hostopathological analysis; settings: in vivo
Homo sapiens [9] = assay: Toxicity in sphenoid sinus human patient assessed as cutaneous reaction treatment increased upto 300 mg, iv QID for 8 weeks measured after 2 weeks of treatment discontinuation; settings: in vivo
Homo sapiens [10] = assay: Toxicity in sphenoid sinus human patient assessed as occurrence of extended interface dermatitis with vacuolar alteration of the basilar epidermis treatment increased upto 300 mg, po QID by biopsy hostopathological analysis; settings: in vivo
Homo sapiens [11] = assay: Toxicity in sphenoid sinus human patient assessed as increase in liver enzyme level treatment increased upto 300 mg, iv QID for 8 weeks measured after 2 weeks of treatment discontinuation; settings: in vivo
Homo sapiens [12] = assay: Toxicity in sphenoid sinus human patient assessed as increase in liver enzyme level treatment increased upto 300 mg, iv QID relative to control; settings: in vivo
Homo sapiens [13] = assay: Toxicity in sphenoid sinus human patient assessed as occurrence of cutaneous reaction with red striae treatment increased upto 300 mg, po QID by biopsy hostopathological analysis; settings: in vivo
Homo sapiens [14] = assay: Toxicity in sphenoid sinus human patient assessed as desensitization to several types of adverse reactions at 500 mg, iv BID after 8 weeks; settings: in vivo, 1344 h

## C[C@@H](c1ncncc1F)[C@](O)(Cn1cncn1)c1ccc(F)cc1F [VORICONAZOLE]
Homo sapiens [1]
  Activity: Toxic
Homo sapiens [2]
  Activity: Toxic
Homo sapiens [3]
  Activity: Toxic
Homo sapiens [4]
  Activity: Non-toxic
Homo sapiens [5]
  Activity: Non-toxic
Homo sapiens [6]
  Activity: Non-toxic
Homo sapiens [7]
  Activity: Toxic
Homo sapiens [8]
  Activity: Toxic
Homo sapiens [9]
  Activity: Non-toxic
Homo sapiens [10]
  Activity: Toxic
Homo sapiens [11]
  Activity: Non-toxic
Homo sapiens [12]
  Activity: Toxic
Homo sapiens [13]
  Activity: Toxic
Homo sapiens [14]
  Activity: Non-toxic
